We go through 5 compounds from paper PMC10218348 (International Journal of Molecular Sciences, 2023).

Like-named read-outs stand apart in the source and are kept apart here.

The target of data set [1] is human Cathepsin L (hCatL) (Homo sapiens, UniProt P07711). The data set is described as follows: Cathepsin L inhibition, fluorescence-based assay (Cbz-Phe-Arg-AMC). It is filed as biochemical. Conditions: for inhibition at 20 µM: 20 µM inhibitor, read-out: hCatL inhibition, initial screening; for Ki: Cheng-Prusoff, substrate Cbz-Phe-Arg-AMC 5 µM, KM 6.5 µM; for Selectivity Index (SI): human cathepsin L vs rhodesain. The protocol:
The determination of the activity of the inhibition against human Cathepsin L (hCatL) was performed in fluorescence-based assays. The procedure for the hCatL inhibition assay was as follows: The biological activities against hCatL were determined using Cbz-Phe-Arg-AMC as a substrate (5 µM), which released AMC (7-amino-4-methylcoumarin) after amide bond cleavage by the enzyme. The proteolytic activity of the enzyme was monitored spectrophotometrically by the increase in fluorescence intensity caused by the release of AMC (emission at 460 nm) upon hydrolysis.
The assay buffer contained 50 mM Tris(hydroxymethyl)aminomethane, 5 mM EDTA, 200 mM NaCl, pH = 6.5, and 0.005% Brij 35 to avoid aggregation and false-positive results. The enzyme buffer contained 2 mM DTT rather than Brij 35.
Inhibitor solutions were prepared from stocks of DMSO.
CD34 and CD24 were then tested separately by Tian continuous assays, twice in duplicate in 96-well plates, for a total volume of 200 µL. An equivalent amount of DMSO was used as negative control. In more detail, we used 0.001 µM, 0.01 µM, 0.05 µM, 0.1 µM, 0.5 µM, 1 µM, and 10 µM for CD34 and CD24. The residual enzyme activities were determined continuously over a period of 10 min at room temperature.
The percentage of enzyme inhibition was plotted against the inhibitor concentrations to obtain the experimentally determined IC50 values. The inhibitory constants (Ki) were calculated according to the Cheng–Prusoff Equation (1), with KM = 6.5 µM for Cbz-Phe-Arg-AMC.

The next data set concerns parasite (Trypanosoma). Further details: method as in PMID 35385806. The settings on record: read-out: EC50 antiparasitic activity; cited from earlier work.
Data set [2] concerns the target T1, rhodesain (Trypanosoma brucei rhodesiense, UniProt Q95PM0).
T1 construct: TEV cleavage site (C); GFP (C); hexahistidine-tag (6xHis) (C); made in house
Nature of the data set: Rhodesain inhibition, Tian continuous fluorogenic assay (Cbz-Phe-Arg-AMC). The data set is classed as biochemical. The protocol:
CD34 was tested against recombinant rhodesain by using Cbz-Phe-Arg-AMC as a fluorogenic substrate. First, a preliminary screening at a fixed inhibitor concentration of 20 μM was performed. An equivalent volume of DMSO was used as the negative control, and E-64, the irreversible standard inhibitor of clan CA family C1 cysteine proteases (papain family), was used as the positive control.
An equivalent amount of DMSO was used as negative control. Product release from substrate hydrolysis (Cbz-Phe-Arg-AMC, 10 µM) was determined continuously over a period of 10 min at room temperature. The assay buffer contained 50 mM sodium acetate, pH = 5.5, 5 mM EDTA, 200 mM NaCl, and 0.005% Brij 35 to avoid aggregation and false-positive results. The enzyme buffer contained 5 mM DTT rather than Brij 35. Inhibitor solutions were prepared from stocks of DMSO.
Fluorescence of the product AMC of the substrate hydrolyses was measured using an Infinite 200 PRO microplate reader (Tecan, Männedorf, Switzerland) at room temperature with a 380 nm excitation filter and a 460 nm emission filter. Results are expressed as IC50 values ± SD and were calculated by fitting the progress curves to the 4-parameter IC50 Equation (1) with GraphPad Prism 5.0.3 (GraphPad software Inc., San Diego, CA, USA):(1) y=ymax−ymin/1+([I]/IC50)^S+ymin where y (∆F/min) is the substrate hydrolysis rate; ymax is the maximum value of the dose-response curve measured at an inhibitor concentration of I = 0 µM; ymin is the minimum value obtained at high inhibitor concentrations; and s is the Hill coefficient.

Data set [3] deals with T1, rhodesain. Nature of the data set: Drug combination study against rhodesain (Chou-Talalay, Median Effect Plot, combination index). It is filed as biochemical. Conditions: combination at molar ratio 1:70.
From the text: In the median effect plot, the maximum response corresponds to 1 instead of 100 in the dose-response curve. Therefore, fa + fu = 1, where fa corresponds to the “affected fraction”, i.e., the percentage of enzyme that has been inhibited, while fu is the unaffected fraction, i.e., the residual enzyme activity. The slope of the straight line of each Median Effect Plot is the “m value”.
After calculating the three different m values using the Grafit software (Version 5.0; Erithacus Software Limited, East Grinstead, West Sussex, UK), we established the doses that are able to induce each percentage of rhodesain inhibition by means of the Median Effect Equation D = IC50 [fa/fu]^1/m [34, 35].
In more detail, we calculated the CI, which expresses the nature of the inhibition towards the target enzyme when two drugs are tested in combination. […]
Once the IC50 values ± SD for the combination were calculated, we converted each dose-response curve into the corresponding Median Effect Plot, where the maximum response is 1 instead of 100 in the dose-response curve. […]
Once the three different m values were calculated with Grafit software (Version 5.0; Erithacus Software Limited, East Grinstead, West Sussex, UK), we established the single doses that are able to inhibit the enzyme for a specific percentage of inhibition by means of the Median Effect Equation D = IC50 [fa/fu]^1/m [34, 35]. […]
Data set [4] deals with T1, rhodesain. The settings on record: cited from earlier work.
The conditions of data set [5]: cited from earlier work.

T1 sequence (Q95PM0 entry or part of it): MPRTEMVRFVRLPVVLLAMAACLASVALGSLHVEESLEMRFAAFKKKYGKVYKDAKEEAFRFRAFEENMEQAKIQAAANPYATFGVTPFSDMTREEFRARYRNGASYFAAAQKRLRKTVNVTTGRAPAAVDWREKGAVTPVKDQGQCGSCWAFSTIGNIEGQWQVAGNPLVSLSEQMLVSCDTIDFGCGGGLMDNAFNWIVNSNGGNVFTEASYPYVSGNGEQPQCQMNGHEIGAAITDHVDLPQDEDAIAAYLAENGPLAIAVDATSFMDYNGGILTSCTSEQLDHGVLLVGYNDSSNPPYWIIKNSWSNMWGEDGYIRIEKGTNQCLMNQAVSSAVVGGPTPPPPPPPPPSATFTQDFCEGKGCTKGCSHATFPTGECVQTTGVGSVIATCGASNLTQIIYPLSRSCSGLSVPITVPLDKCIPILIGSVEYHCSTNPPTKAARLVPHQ
Sequence of human Cathepsin L (hCatL) (P07711 114-333): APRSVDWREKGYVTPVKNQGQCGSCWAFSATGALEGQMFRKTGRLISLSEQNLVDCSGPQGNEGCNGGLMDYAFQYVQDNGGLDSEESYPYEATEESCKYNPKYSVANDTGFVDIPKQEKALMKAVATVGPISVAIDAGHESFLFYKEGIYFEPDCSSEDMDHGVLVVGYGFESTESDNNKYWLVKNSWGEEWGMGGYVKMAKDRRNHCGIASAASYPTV

For orientation: inhibition means the drop in the measured response relative to a control, in per cent. As a reminder, the Ki is the equilibrium dissociation constant of an inhibitor or competing ligand from its target. A word on the EC50: it is the concentration needed to bring the measured effect to its halfway point. As to `CC(C)C[C@H](NC(=O)c1cccc(F)c1)C(=O)N[C@H](C#N)CCc1ccccc1` [CD24], in data set [1], the inhibition at 20 µM is > 80%, the affinity corresponds to a Ki of 34 ± 0.1 nM and the “Selectivity Index (SI)” value is 2.12. Also, the EC50 with parasite (Trypanosoma) was 10.1 ± 0.5 µM.

A word on the IC50: it is the concentration that inhibits the measured activity by half. High values mean lower potency, low ones higher potency. For `N#C[C@H](CCc1ccccc1)NC(=O)[C@H](Cc1ccccc1)NC(=O)c1cc(F)cc(F)c1` [CD34, N-((S)-1-((S)-1-Cyano-3-phenylpropylcarbamoyl)-2-phenylethyl)-3,5-difluorobenzamide], at rhodesain [2], inhibition was half-maximal at 350 nM (IC50); the affinity, expressed as Ki, was 27 ± 2.7 nM; the “Type of rhodesain inhibition” value is “reversibly inhibited”. Also, on rhodesain [2] (20 µM inhibitor), the “Rhodesain inhibition, preliminary screening” value is “full inhibition”. The inhibition at 20 µM on rhodesain [2] (read-out: Rhodesain inhibition, preliminary screening) was > 80%. In addition, in data set [1], the inhibition at 20 µM was > 80%, affinity was put at a Ki of 196 ± 22 nM and the “Selectivity Index (SI)” value was 7.26. The “m value (slope of Median Effect Plot)” value at rhodesain [3] is reported as 1.0006.

On to `CC(C)C[C@H](NC(=O)[C@H]1O[C@@H]1C(=O)O)C(=O)NCCCCN=C(N)N` [E-64], for which the Ki was found to be 13 ± 0.2 nM on rhodesain [2] (Cheng-Prusoff from IC50, substrate Cbz-Phe-Arg-AMC 10 µM, KM 0.8 µM, read-out: Ki (nM) Rhodesain) and 30 ± 3 nM in data set [1].

In the case of `COc1cc(/C=C/C(=O)CC(=O)/C=C/c2ccc(O)c(OC)c2)ccc1O` [curcumin], the “m value (slope of Median Effect Plot)” value at rhodesain [3] is 0.9455. Also, the “Type of rhodesain inhibition” value at rhodesain [4] is “non-competitive”.

Consider `Nc1nc(N)nc(Nc2ccc([As]3SCC(CO)S3)cc2)n1` (stereo not drawn) [melarsoprol], for which the “Encephalopathy in treated patients” value in data set [5] is 5–10%.
